We go through one compound from BindingDB's records for doi:10.1021/jm025558r (Friedrich-Alexander University, 2002).

For experiment [1], the target named is 5-hydroxytryptamine receptor 1A (Sus scrofa). Nature of the experiment: Displacement of [3H]- 8-OH-DPAT from porcine 5-hydroxytryptamine 1A receptor. A general note: Loss of bound radioactivity is the signal in a displacement assay; it reports binding, not function.
For experiment [2], the target named is D(1) dopamine receptor (Sus scrofa). Nature of the experiment: Binding affinity for porcine Dopamine receptor D1 by [3H]-SCH- 23390 displacement.

On to `O=C(NCCCCN1CCN(c2cccc(Cl)c2Cl)CC1)c1cc2ccccc2[te]1` [Benzo[b]tellurophene-2-carboxylic acid {4-[4-(2,3-dichloro-phenyl)-piperazin-1-yl]-butyl}-amide], for which the values for the Ki in experiment [1] and in experiment [2] were 125 nM and 1400 nM, respectively.

As a reminder, the Ki is a dissociation constant, usually derived from enzyme kinetics or from competition with a known ligand. Low readings indicate a stronger hold on the target, high ones a looser hold on the target.
